Data reported in PubChem BioAssay AID1259407 (Chemical Carcinogenesis Research Information System (CCRIS), 2018).
Calls of active or inactive are those of the source. How the calls were made is not given here.

Tested on: CCRIS mutagenicity, Ames/micronucleus/aberration tests
Assay: CCRIS mutagenicity studies

Cn1c(N)nc2nc3ccccc3cc21
mutagenic call (Test System: AMES SALMONELLA TYPHIMURIUM, Strain/Indicator: TA98, Metabolic Activation: RAT, LIVER, S-9, AROCLOR 1254A, Method: STANDARD PLATE): active; positive
mutagenic call (Test System: AMES SALMONELLA TYPHIMURIUM, Strain/Indicator: YG1024, Metabolic Activation: RAT, LIVER, S-9, AROCLOR 1254A, Method: STANDARD PLATE): active; positive

CNc1ccc(Cl)cc1
mutagenic call (Test System: UDS RODENT HEPATOCYTES, Strain/Indicator: THY INCORP (NON-S-PHASE), Metabolic Activation: NONE, Method: AUTORADIOGRAPHY): active; positive

c1ccc2c(c1)-c1c3ccccc3cc3cc4ccccc4c-2c13
mutagenic call (Test System: HUMAN H1A1V2 CELLS, Strain/Indicator: TK LOCUS, Metabolic Activation: NONE, Method: SUSPENSION/PLATE): active; positive

N#CC1=C(C#N)SCCS1
mutagenic call (Test System: AMES SALMONELLA TYPHIMURIUM, Strain/Indicator: TA98, Metabolic Activation: NONE, Method: STANDARD PLATE): inactive; negative
mutagenic call (Test System: AMES SALMONELLA TYPHIMURIUM, Strain/Indicator: TA98, Metabolic Activation: RAT, LIVER, S-9, AROCLOR 1254, Method: STANDARD PLATE): inactive; negative
mutagenic call (Test System: AMES SALMONELLA TYPHIMURIUM, Strain/Indicator: TA100, Metabolic Activation: NONE, Method: STANDARD PLATE): inactive; negative
mutagenic call (Test System: AMES SALMONELLA TYPHIMURIUM, Strain/Indicator: TA100, Metabolic Activation: RAT, LIVER, S-9, AROCLOR 1254, Method: STANDARD PLATE): inactive; negative
mutagenic call (Test System: AMES SALMONELLA TYPHIMURIUM, Strain/Indicator: TA1535, Metabolic Activation: NONE, Method: STANDARD PLATE): inactive; negative
mutagenic call (Test System: AMES SALMONELLA TYPHIMURIUM, Strain/Indicator: TA1535, Metabolic Activation: RAT, LIVER, S-9, AROCLOR 1254, Method: STANDARD PLATE): inactive; negative
mutagenic call (Test System: AMES SALMONELLA TYPHIMURIUM, Strain/Indicator: TA1537, Metabolic Activation: NONE, Method: STANDARD PLATE): inactive; negative
mutagenic call (Test System: AMES SALMONELLA TYPHIMURIUM, Strain/Indicator: TA1537, Metabolic Activation: RAT, LIVER, S-9, AROCLOR 1254, Method: STANDARD PLATE): inactive; negative
mutagenic call (Test System: AMES SALMONELLA TYPHIMURIUM, Strain/Indicator: TA1538, Metabolic Activation: NONE, Method: STANDARD PLATE): inactive; negative
mutagenic call (Test System: AMES SALMONELLA TYPHIMURIUM, Strain/Indicator: TA1538, Metabolic Activation: RAT, LIVER, S-9, AROCLOR 1254, Method: STANDARD PLATE): inactive; negative
